Publication PMC11637438, “Chickpea NCR13 disulfide cross-linking variants exhibit profound differences in antifungal activity and modes of action” (PLOS Pathogens, 2024)
Like-named read-outs stand apart in the source and are kept apart here. Ends that are not written are not given here. Peptide text beside a SMILES is read from it.

Test system: B. cinerea
Assay type: cell-based, Botrytis cinerea
Conditions: for fold reduction in antifungal activity relative to NCR13_CS: reduced peptides
Experimental: B. cinerea strain T4 was cultured in V8 medium for 3 weeks at 25°C. Fungal spores were collected by flooding the fungal growth plates with water and scraped using a sterile spreader. The spore suspension was filtered through two layers of Miracloth, followed by centrifugation at 12,000 g for 2 minutes (min) and subsequently washed twice with sterile water. Lastly, fungal spores were resuspended in Synthetic Fungal Media (SFM). The spore suspension was adjusted to the desired spore density of about 10^5 spores/mL using a hemocytometer. Fusarium virguliforme (F. virguliforme) was grown and maintained regularly in potato dextrose agar (PDA) (Difco Laboratories) medium. Two weeks old F. virguliforme plates were used to collect spores as described above for B. cinerea followed by centrifugation and washing steps. Spores were counted using a hemocytometer and adjusted to the final concentration of 10^5 spores/mL in 2X SFM media. Sclerotinia sclerotiorum obtained from the field of pennycress in Illinois was grown on PDA medium at room temperature.
The antifungal activity of NCR13 against fungal pathogens was determined using the resazurin cell viability assay, as described previously. Briefly, 45 μL of each peptide dilution (0, 0.09, 0.1875, 0.375, 0.75, 1.5, 3, and 6 μM) was added to each well of the microtiter plate containing 45 μL (~10^5 spores/mL) of spore suspension. Three biological replicates were used for each treatment and the experiments were repeated three times. Resazurin at 0.1% (w/v) was added to each well after incubation for 48 h. Images were taken at ~24 h. The Minimum Inhibitory Concentration (MIC) for each peptide denotes the lowest concentration at which the peptide halts the growth of fungus evident through a lack of color change from blue to […]. The in vitro antifungal activity of NCR13_PFVs against S. sclerotiorum was determined using a 24-well plate assay as previously described. Mycelial plugs (1 mm in diameter) cut from the growing edge of the two day-old actively growing colony were transferred from PDA media to a series of wells containing 250 μL of SFM.

[1] = B. cinerea, resazurin assay in SFM, ~10^5 spores/mL, resazurin added after 48 h, three biological replicates

| Molecule | Minimal Inhibitory Concentration (MIC) [1] | Minimal Inhibitory Concentration (MIC) (48 h) | further results |
| --- | --- | --- | --- |
| CC(C)[C@H](NC(=O)[C@H](CCCCN)NC(=O)[C@@H]1CCCN1C(=O)[C@H](CCCCN)NC(=O)[C@H](CCCNC(=N)N)NC(=O)[C@H](CS)NC(=O)[C@H](C)NC(=O)[C@H](Cc1ccccc1)NC(=O)[C@H](CCCCN)NC(=O)[C@@H](N)CCCCN)C(=O)N1CCC[C@H]1C(=O)N[C@@H](CCCCN)C(=O)N[C@@H](CS)C(=O)O [NCR13 active motif] (H-KKFACRKPKVPKC-OH; N-terminus and C-terminus assumed) | 3 µM |  |  |
| CC[C@H](C)[C@H](NC(=O)[C@H](CS)NC(=O)[C@H](CCCCN)NC(=O)[C@@H]1CCCN1C(=O)[C@@H](NC(=O)[C@H](CCCCN)NC(=O)[C@@H]1CCCN1C(=O)[C@H](CCCCN)NC(=O)[C@H](CCCNC(=N)N)NC(=O)[C@H](CS)NC(=O)[C@H](C)NC(=O)[C@H](Cc1ccccc1)NC(=O)[C@H](CCCCN)NC(=O)[C@H](CCCCN)NC(=O)[C@H](CS)NC(=O)[C@H](C)NC(=O)[C@H](C)NC(=O)[C@H](C)NC(=O)[C@H](C)NC(=O)[C@H](C)NC(=O)[C@H](CS)NC(=O)[C@@H]1CCCN1C(=O)[C@H](CCCCN)NC(=O)[C@@H](N)[C@@H](C)O)C(C)C)C(=O)N[C@@H](CC(N)=O)C(=O)NCC(=O)N[C@@H](Cc1ccccc1)C(=O)N[C@@H](CS)C(=O)N[C@@H](CCCCN)C(=O)N[C@@H](CS)C(=O)N[C@H](C(=O)N[C@@H](CCCNC(=N)N)C(=O)O)C(C)C [NCR13_AlaV1] (H-TKPCAAAAACKKFACRKPKVPKCINGFCKCVR-OH; N-terminus and C-terminus assumed) |  | 6 µM | fold reduction in antifungal activity relative to NCR13_CS (B. cinerea): 2 fold |
| CC[C@H](C)[C@H](NC(=O)[C@H](CS)NC(=O)[C@H](CCCCN)NC(=O)[C@@H]1CCCN1C(=O)[C@@H](NC(=O)[C@H](CCCCN)NC(=O)[C@@H]1CCCN1C(=O)[C@H](CCCCN)NC(=O)[C@H](CCCNC(=N)N)NC(=O)[C@H](CS)NC(=O)[C@H](C)NC(=O)[C@H](C)NC(=O)[C@H](C)NC(=O)[C@H](C)NC(=O)[C@H](CS)NC(=O)[C@H](CC(=O)O)NC(=O)[C@H](CCCCN)NC(=O)[C@H](CC(=O)O)NC(=O)[C@H](CO)NC(=O)[C@H](CCC(N)=O)NC(=O)[C@H](CS)NC(=O)[C@@H]1CCCN1C(=O)[C@H](CCCCN)NC(=O)[C@@H](N)[C@@H](C)O)C(C)C)C(=O)N[C@@H](CC(N)=O)C(=O)NCC(=O)N[C@@H](Cc1ccccc1)C(=O)N[C@@H](CS)C(=O)N[C@@H](CCCCN)C(=O)N[C@@H](CS)C(=O)N[C@H](C(=O)N[C@@H](CCCNC(=N)N)C(=O)O)C(C)C [NCR13_AlaV2] (H-TKPCQSDKDCAAAACRKPKVPKCINGFCKCVR-OH; N-terminus and C-terminus assumed) |  | > 12 µM |  |
| CC[C@H](C)[C@H](NC(=O)[C@H](CS)NC(=O)[C@H](C)NC(=O)[C@H](C)NC(=O)[C@H](C)NC(=O)[C@H](CCCCN)NC(=O)[C@@H]1CCCN1C(=O)[C@H](CCCCN)NC(=O)[C@H](CCCNC(=N)N)NC(=O)[C@H](CS)NC(=O)[C@H](C)NC(=O)[C@H](Cc1ccccc1)NC(=O)[C@H](CCCCN)NC(=O)[C@H](CCCCN)NC(=O)[C@H](CS)NC(=O)[C@H](CC(=O)O)NC(=O)[C@H](CCCCN)NC(=O)[C@H](CC(=O)O)NC(=O)[C@H](CO)NC(=O)[C@H](CCC(N)=O)NC(=O)[C@H](CS)NC(=O)[C@@H]1CCCN1C(=O)[C@H](CCCCN)NC(=O)[C@@H](N)[C@@H](C)O)C(=O)N[C@@H](CC(N)=O)C(=O)NCC(=O)N[C@@H](Cc1ccccc1)C(=O)N[C@@H](CS)C(=O)N[C@@H](CCCCN)C(=O)N[C@@H](CS)C(=O)N[C@H](C(=O)N[C@@H](CCCNC(=N)N)C(=O)O)C(C)C [NCR13_AlaV4] (H-TKPCQSDKDCKKFACRKPKAAACINGFCKCVR-OH; N-terminus and C-terminus assumed) |  | > 12 µM |  |
| CC(C)[C@H](NC(=O)[C@H](CS)NC(=O)[C@H](CCCCN)NC(=O)[C@H](CS)NC(=O)[C@H](C)NC(=O)[C@H](C)NC(=O)[C@H](C)NC(=O)[C@H](C)NC(=O)[C@H](CS)NC(=O)[C@H](CCCCN)NC(=O)[C@@H]1CCCN1C(=O)[C@@H](NC(=O)[C@H](CCCCN)NC(=O)[C@@H]1CCCN1C(=O)[C@H](CCCCN)NC(=O)[C@H](CCCNC(=N)N)NC(=O)[C@H](CS)NC(=O)[C@H](C)NC(=O)[C@H](Cc1ccccc1)NC(=O)[C@H](CCCCN)NC(=O)[C@H](CCCCN)NC(=O)[C@H](CS)NC(=O)[C@H](CC(=O)O)NC(=O)[C@H](CCCCN)NC(=O)[C@H](CC(=O)O)NC(=O)[C@H](CO)NC(=O)[C@H](CCC(N)=O)NC(=O)[C@H](CS)NC(=O)[C@@H]1CCCN1C(=O)[C@H](CCCCN)NC(=O)[C@@H](N)[C@@H](C)O)C(C)C)C(=O)N[C@@H](CCCNC(=N)N)C(=O)O [NCR13_AlaV5] (H-TKPCQSDKDCKKFACRKPKVPKCAAAACKCVR-OH; N-terminus and C-terminus assumed) |  | 12 µM | fold reduction in antifungal activity relative to NCR13_CS (B. cinerea): 4 fold |
| CC[C@H](C)[C@H](NC(=O)[C@H](CS)NC(=O)[C@H](CCCCN)NC(=O)[C@@H]1CCCN1C(=O)[C@@H](NC(=O)[C@H](CCCCN)NC(=O)[C@@H]1CCCN1C(=O)[C@H](CCCCN)NC(=O)[C@H](CCCNC(=N)N)NC(=O)[C@H](CS)NC(=O)[C@H](C)NC(=O)[C@H](Cc1ccccc1)NC(=O)[C@H](CCCCN)NC(=O)[C@H](CCCCN)NC(=O)[C@H](CS)NC(=O)[C@H](CC(=O)O)NC(=O)[C@H](CCCCN)NC(=O)[C@H](CC(=O)O)NC(=O)[C@H](CO)NC(=O)[C@H](CCC(N)=O)NC(=O)[C@H](CS)NC(=O)[C@@H]1CCCN1C(=O)[C@H](CCCCN)NC(=O)[C@@H](N)[C@@H](C)O)C(C)C)C(=O)N[C@@H](CC(N)=O)C(=O)NCC(=O)N[C@@H](Cc1ccccc1)C(=O)N[C@@H](CS)C(=O)N[C@@H](CCCCN)C(=O)N[C@@H](CS)C(=O)N[C@H](C(=O)N[C@@H](CCCNC(=N)N)C(=O)O)C(C)C [NCR13_CS] (H-TKPCQSDKDCKKFACRKPKVPKCINGFCKCVR-OH; N-terminus and C-terminus assumed) | 3 µM |  | fold decrease in antifungal activity compared to NCR13_PFV1 (B. cinerea): ~33 fold; fold decrease in antifungal activity compared to NCR13_PFV2 (B. cinerea): 2 fold |
| TKPSQSDKDSKKFASRKPKVPKSINGFSKSVR [NSR13] | Inactive | > 24 µM |  |
